Test results reported in publication PMC7059627 (FASEB bioAdvances, 2020).

Columns and labels:
[1] = target: T1, mitochondrial complex I (Bos taurus, UniProt P03887+P17694+P42026); assay: Michaelis-Menten kinetics with DCPIP reduction, NADH as electron donor; assay type: cell-based
[2] = target: T1, mitochondrial complex I; assay: NADH:decylubiquinone/DCPIP complex I kinetics in freeze-thawed mitochondria; assay type: biochemical

T1 sequence (P42026 38-216): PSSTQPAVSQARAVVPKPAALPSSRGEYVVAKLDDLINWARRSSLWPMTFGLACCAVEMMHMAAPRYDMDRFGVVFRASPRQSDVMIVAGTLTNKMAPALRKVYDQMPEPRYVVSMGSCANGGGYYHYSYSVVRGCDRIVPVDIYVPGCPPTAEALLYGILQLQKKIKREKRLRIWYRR
T1 sequence (P03887 whole entry): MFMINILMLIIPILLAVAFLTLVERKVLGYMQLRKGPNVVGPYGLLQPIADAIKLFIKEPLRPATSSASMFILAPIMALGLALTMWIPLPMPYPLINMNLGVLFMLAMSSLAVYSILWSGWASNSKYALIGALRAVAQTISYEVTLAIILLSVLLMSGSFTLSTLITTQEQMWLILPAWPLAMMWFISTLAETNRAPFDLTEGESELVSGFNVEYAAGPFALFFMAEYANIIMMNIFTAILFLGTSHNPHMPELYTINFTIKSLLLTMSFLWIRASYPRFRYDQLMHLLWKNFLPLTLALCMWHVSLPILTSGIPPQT
T1 sequence (P17694 34-463): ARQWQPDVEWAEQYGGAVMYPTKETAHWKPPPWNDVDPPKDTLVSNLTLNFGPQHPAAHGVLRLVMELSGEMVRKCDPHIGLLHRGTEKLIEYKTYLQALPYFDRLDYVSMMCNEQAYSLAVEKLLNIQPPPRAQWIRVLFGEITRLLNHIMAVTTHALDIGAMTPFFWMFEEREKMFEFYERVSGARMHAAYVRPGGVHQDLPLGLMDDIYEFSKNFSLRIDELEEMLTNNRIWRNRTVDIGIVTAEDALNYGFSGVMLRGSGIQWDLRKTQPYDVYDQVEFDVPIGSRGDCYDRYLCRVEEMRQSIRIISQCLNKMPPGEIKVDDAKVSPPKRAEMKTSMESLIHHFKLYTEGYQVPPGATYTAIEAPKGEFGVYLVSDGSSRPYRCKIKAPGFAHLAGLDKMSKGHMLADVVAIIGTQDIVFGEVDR

## CCCCCCCCCCC1=C(C)C(=O)C(OC)=C(OC)C1=O [decylubiquinone]
[1]
  Michaelis-Menten kinetics with DCPIP reduction, NADH as electron donor: Kinetics with the substrate analog decylubiquinone at different PQS concentrations were measured

## CCCCCCCc1[nH]c2ccccc2c(=O)c1O [PQS, 2‐heptyl‐3‐hydroxy‐4(1H)‐quinolone]
[2]
  Ki: 560 nM
